# Test results from US4143166A, “7[(2-Hydroxyamino-2-disubstituted phenyl-acetamido)-]3-heterocyclicthio-3-cephem-4-carboxylic acids” (Fujisawa Pharmaceutical Co., Ltd., priority 1975, dated 1979).
# Like-named read-outs stand apart in the source and are kept apart here.
# Experiments:
# Type in all cases: cell-based
# Sal. Enteritidis = test: In vitro antibacterial activity, two-fold agar-plate dilution method (MIC), Sal. Enteritidis; details: Salmonella enterica, read-out: minimal inhibitory concentration (MIC)
# Method: (§1) In vitro antibacterial activity was determined by the two-fold agar-plate dilution method as described below.
# (§2) One loopful of an overnight culture of each test strain in Trypticase-soy broth (10^8 viable cells per ml) was streaked on heart infusion agar (HI-agar) containing graded concentrations of antibiotics, and the minimal inhibitory concentration (MIC) was expressed in terms of μg/ml after incubation at 37° C. for 20 hours.
# E coli 341 = test: In vitro antibacterial activity, two-fold agar-plate dilution method (MIC), E coli 341; details: read-out: minimal inhibitory concentration (MIC)
# Method: as §1, §2
# Pr. mirabilis 525 = test: In vitro antibacterial activity, two-fold agar-plate dilution method (MIC), Pr. mirabilis 525; details: read-out: minimal inhibitory concentration (MIC)
# Method: as §1, §2
# Sh. flexneri2a = test: In vitro antibacterial activity, two-fold agar-plate dilution method (MIC), Sh. flexneri 2a; details: Shigella flexneri, HI-agar, 37° C., 20 hours, 10^8 viable cells per ml, read-out: minimal inhibitory concentration (MIC)
# Method: as §1, §2
# Kl. pneumoniae 417 = test: In vitro antibacterial activity, two-fold agar-plate dilution method (MIC), Kl. pneumoniae 417; details: Klebsiella pneumoniae, HI-agar, 37° C., 20 hours, 10^8 viable cells per ml, read-out: minimal inhibitory concentration (MIC)
# Method: as §1, §2
# Ps. aeruginosa721 = test: In vitro antibacterial activity, two-fold agar-plate dilution method (MIC), Ps. aeruginosa 721; details: Pseudomonas aeruginosa, read-out: minimal inhibitory concentration (MIC)
# Method: as §1, §2
# [1] = E coli 341, HI-agar, 37° C., 20 hours, 10^8 viable cells per ml
# [2] = Proteus mirabilis, Pr. mirabilis 525, HI-agar, 37° C., 20 hours, 10^8 viable cells per ml
# [3] = Ps. aeruginosa721, HI-agar, 37° C., 20 hours, 10^8 viable cells per ml
# [4] = Sal. Enteritidis, HI-agar, 37° C., 20 hours, 10^8 viable cells per ml
SMILES,"MIC (Sal. Enteritidis; ENTERITIDIS, 20 h) [µg/mL]",MIC (E coli 341; [1]) [µg/mL],MIC (Pr. mirabilis 525; [2]) [µg/mL],MIC (Sh. flexneri2a) [µg/mL],MIC (Kl. pneumoniae 417) [µg/mL],MIC (Ps. aeruginosa721; [3]) [µg/mL],MIC (Sal. Enteritidis; [4]) [µg/mL],MIC (Ps. aeruginosa721; 20 h) [µg/mL],"MIC (Pr. mirabilis 525; Proteus mirabilis, 525, 20 h) [µg/mL]",MIC (E coli 341; 20 h) [µg/mL]
"Cn1nnnc1SCC1=C(C(=O)O)N2C(=O)C(NC(=O)/C(=N\O)c3ccc(O)cc3)C2SC1 (stereo not drawn) [Test Compound (1), Sodium 7-[2-hydroxyimino-2-(4-hydroxyphenyl)acetamido]-3-(1-methyl-1H-tetrazol-5-yl)thiomethyl-3-cephem-4-carboxylate (syn isomer)]",3.13,1.56,1.56,0.78,3.13,25,,,,
"Cn1nnnc1SCC1=C(C(=O)O)N2C(=O)C(NC(=O)/C(=N\O)c3cccc(O)c3)C2SC1 (stereo not drawn) [Test Compound (2), Sodium 7-(2-hydroxyimino-2-(3-hydroxyphenyl)acetamido]-3-(1-methyl-1H-tetrazol-5-yl)thiomethyl-3-cephem-4-carboxylate (syn isomer)]",,0.78,1.56,0.78,0.78,100,1.56,,,
"CC(=O)OCC1=C(C(=O)O)N2C(=O)C(NC(=O)/C(=N\O)c3ccc(O)c(Cl)c3)C2SC1 (stereo not drawn) [Test Compound (3), Sodium 7-[2-hydroxyimino-2-(3-chloro-4-hydroxyphenyl)acetamido]cephalosporanate (syn isomer)]",,6.25,0.39,3.13,3.13,,0.78,3.13,,
"O=C(O)C1=C(CSc2nncs2)CSC2C(NC(=O)/C(=N\O)c3cccc(O)c3)C(=O)N12 (stereo not drawn) [Test Compound (4), 7-[2-Hydroxyimino-2-[3-hydroxyphenyl)acetamido]-3-(1,3,4-thiadiazol-2-yl)thiomethyl-3-cephem-4-carboxylic acid (syn isomer)]",,0.78,1.56,0.39,3.13,12.5,0.39,,,
"Cc1nnc(SCC2=C(C(=O)O)N3C(=O)C(NC(=O)/C(=N\O)c4cccc(O)c4)C3SC2)s1 (stereo not drawn) [Test Compound (5), 7-[2-Hydroxyimino-2-(3-hydroxyphenyl)acetamido]-3-(5-methyl-1,3,4-thiadiazol-2-yl)thiomethyl-3-cephem-4-carboxylic acid (syn isomer)]",,0.78,3.13,0.39,0.78,6.25,0.2,,,
"Cn1nnnc1SCC1=C(C(=O)O)N2C(=O)C(NC(=O)/C(=N\OC(=O)c3ccccc3)c3cccc(O)c3)C2SC1 (stereo not drawn) [Test Compound (6), 7-[2-Benzoyloxyimino-2-(3-hydroxyphenyl)acetamido]-3-(1-methyl-1H-tetrazol-5-yl)thiomethyl-3-cephem-4-carboxylic acid (syn isomer)]",,1.56,0.78,0.78,0.39,12.5,0.39,,,
"CCOC(=O)O/N=C(\C(=O)NC1C(=O)N2C(C(=O)O)=C(CSc3nnnn3C)CSC12)c1cccc(O)c1 (stereo not drawn) [Test Compound (7), 7-[2-Ethoxycarbonyloxyimino-2-(3-hydroxyphenyl)acetamido]-3-(1-methyl-1H-tetrazol-5-yl)thiomethyl-3-cephem-4-carboxylic acid (syn isomer)]",,3.13,0.39,1.56,0.39,25,0.2,,,
"CC(=O)OCC1=C(C(=O)O)N2C(=O)C(NC(=O)/C(=N\O)c3cccc(O)c3)C2SC1 (stereo not drawn) [Test Compound (8), 7-[2-Hydroxyimino-2-(3-hydroxphenyl)acetamido]cephalosporanic acid (syn isomer)]",1.56,0.78,,0.78,1.56,25,,,1.56,
"NC(=O)OCC1=C(C(=O)O)N2C(=O)C(NC(=O)/C(=N\O)c3cccc(O)c3)C2SC1 (stereo not drawn) [Test Compound (9), Sodium 7-[2-hydroxyimino-2-(3-hydroxyphenyl)acetamido]-3-carbamoyloxymethyl-3-cephem-4-carboxylate (syn isomer)]",,,0.78,0.78,0.2,6.25,0.78,,,
"Cn1nnnc1SCC1=C(C(=O)O)N2C(=O)C(NC(=O)/C(=N\O)c3ccc(O)c([N+](=O)[O-])c3)C2SC1 (stereo not drawn) [Test Compound (10), 7-[2-Hydroxyimino-2-(3-nitro-4-hydroxyphenyl)acetamido]-3-(1-methyl-1H-tetrazol-5-yl)thiomethyl-3-cephem-4-carboxylic acid (syn isomer)]",,3.13,0.2,1.56,0.39,,0.2,,,
"Cc1nnc(SCC2=C(C(=O)O)N3C(=O)C(NC(=O)/C(=N\O)c4ccccc4)C3SC2)s1 (stereo not drawn) [Test Compound (A), 7-(2-Hydroxyimino-2-phenylacetamido)-3-(5-methyl-1,3,4-thiadiazol-2-yl)thiomethyl-3-cephem-4-carboxylic acid (syn isomer), reference compound]",6.25,,25,6.25,12.5,50,,,,12.5
